Columns and labels:
[1] = test system: CHO cell line expressing the M1 muscarinic receptor; experiment: Pooled two-target microfluidic screen: Fluo-4 green fluorescence response of CHO-M1 cells; format: cell-based; conditions: pooled with THP-1 cells, microfluidic channel, blue excitation light, FIG. 6
Procedure: (§1) A THP-1 cell line was labeled with Fura red. Both cell lines were pooled and introduced into microfluidic device having the channel structure illustrated in FIG. 5. The cells were flowed through the main channel of the device past a detector that excited the cells with blue excitation light. Green fluorescence was analyzed from the Fluo-4 labeled CHO cells to measure their response to the test compounds. The measurement of the different fluorescence was accomplished simultaneously through the use of appropriate beam splitters and filters in the optical train of the detector. Similarly, red fluorescence was measured from the Fura-red labeled THP-1 cells to measure their response. […] Similarly, different concentrations of UTP were also contacted with the cells flowing through the channel and the results for each system were plotted (FIG. 6C-D).

THP-1 cell line = experiment: Pooled two-target microfluidic screen: Fura red fluorescence response of THP-1 cells; format: cell-based; conditions: pooled with CHO-M1 cells, microfluidic channel, blue excitation light, FIG. 6C-6D
Procedure: as §1

SMILES: O=c1ccn([C@@H]2O[C@H](COP(=O)(O)OP(=O)(O)OP(=O)(O)O)[C@@H](O)[C@H]2O)c(=O)[nH]1 [UTP]
- green fluorescence response of Fluo-4 labeled CHO-M1 cells to different concentrations of test compound [1]: dose dependent response
- red fluorescence response of Fura-red labeled THP-1 cells to different concentrations of test compound (THP-1 cell line): dose dependent response

Source: patent US20010036626A1, “Screening assay methods and systems using target pooling” (priority 2000, published 2001)
